Key:
[1] = target: T1, PR-B – NCoR (Homo sapiens, UniProt P06401); assay: PR-B – NCoR interaction, two-hybrid system; type: cell-based
T1 construct: expressed in transfected cells
From the text: The active recruitment of the nuclear corepressor NCoR results in transcriptional inactivity of the PR. So, the potency of PR ligands to induce the interaction of PR with NCoR provides information on the antagonistic potency of the ligand. Therefore, the capacity of EC313 to induce the interaction of PR-B with the corepressor NCoR in comparison with reference ligands was studied. All test compounds except the receptor agonist Promegestone induced PR to interact with NCoR.
Figure 11 (A) PR-B interaction with NCoR using a two-hybrid assay. Dose response curve. […] (B) Liganded PR-Binteraction with c-SRC kinase. The data presented are from five independent experiments. Signals are represented as mean luminescence ± SD normalized to maximal promegestone activity equal to 100%.

[2] = test system: T47D cells; assay: Proliferation / arrest in Go/G1 in T47D cells; type: cell-based, human; set-up: key to Arrest in Go/G1: ↓/↑ - decreased/increased action of tested compounds.; ↓/↑ - decreased/increased action of tested compounds; conditions: Proliferation; T47D cells; statistical significance not always reached
[3] = test system: estrogen-primed endometrium of immature rabbits; assay: McPhail assay, estrogen-primed rabbit endometrium; type: in vivo; conditions: for Score 2 for PR-agonistic activity / Score 2 for PR-antagonistic activity: dose giving McPhail score 2; for Score 2 for PR-antagonistic activity: concomitant progesterone (1 g/animal/day [sic] s.c.)
Protocol: The secretory transformation of estrogen-primed endometrium of immature rabbits indicates the strength of the progestagenic action on the endometrium of the chosen test compound. The simultaneous administration of test compounds with progesterone can indicate potential anti-progestagenic actions.
Female rabbits received daily s.c. injections of 5.0 µg 17β-Estradiol/per animal for 6 days leading to the proliferation of the endometrium. From day 7 to day 13 the animals received doses of vehicle, EC313 (1 to 30 mg/animal/day s.c) or progesterone. On day 14, the animals were sacrificed and the uteri were processed for histological evaluation and the secretory endometrial transformation was rated according to a modified McPhail score (1 – 4).
The rating scale ranges from 1 (no or very low secretory, transformation, or agonistic activity) to 4 (highest secretory, transformation, or agonistic activity). The McPhail score of 2 (median) was selected for the comparison. The antagonistic activity was measured by the concomitant administration of progesterone ([…] s.c.).

[4] = target: T2, GR (Homo sapiens, UniProt P04150); assay: GR transactivation (HELA, MMTV-LUC); type: cell-based; set-up: HELA cells line carrying endogenous glucocorticoid protein; endogenous in cells; host or cells: HELA, stably transfected with the reporter only; conditions: comparative transactivation profile; read-out: Potency, GR Antagonism
T2 sequence (P04150 1-777): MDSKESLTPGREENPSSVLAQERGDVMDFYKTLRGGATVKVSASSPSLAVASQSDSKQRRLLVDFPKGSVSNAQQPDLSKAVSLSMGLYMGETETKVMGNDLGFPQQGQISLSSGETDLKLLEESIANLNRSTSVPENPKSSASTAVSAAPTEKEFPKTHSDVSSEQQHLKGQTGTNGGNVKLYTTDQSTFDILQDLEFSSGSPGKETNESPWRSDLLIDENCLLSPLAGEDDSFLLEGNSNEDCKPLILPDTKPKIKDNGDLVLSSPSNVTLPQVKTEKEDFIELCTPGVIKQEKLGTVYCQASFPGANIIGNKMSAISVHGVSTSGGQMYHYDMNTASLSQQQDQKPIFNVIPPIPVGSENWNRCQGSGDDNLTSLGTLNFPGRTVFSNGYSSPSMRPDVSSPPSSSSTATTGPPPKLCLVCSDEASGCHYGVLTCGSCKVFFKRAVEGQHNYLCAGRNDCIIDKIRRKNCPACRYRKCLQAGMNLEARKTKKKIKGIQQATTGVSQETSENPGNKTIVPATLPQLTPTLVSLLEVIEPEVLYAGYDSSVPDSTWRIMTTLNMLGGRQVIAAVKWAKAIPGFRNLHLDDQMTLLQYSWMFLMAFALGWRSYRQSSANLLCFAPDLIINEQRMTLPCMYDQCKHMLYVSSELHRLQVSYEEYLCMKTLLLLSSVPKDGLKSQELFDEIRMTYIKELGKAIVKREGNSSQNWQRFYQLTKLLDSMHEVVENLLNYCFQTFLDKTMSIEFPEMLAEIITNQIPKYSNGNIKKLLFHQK
Protocol: HELA cells line carrying endogenous glucocorticoid protein were cultured in order to study gene expression on the transcriptional level under the influence of the tested compounds. The cells were transfected with reporter vector MMTV/LUC. To produce high protein overexpression, stable transfection was carried out. […] Agonist and antagonist properties of EC313 toward tested receptor GR were analyzed using luminescence detection.
In order to develop the transfection assay, plasmids were generated and isolated. Vector pGL4.36 coding the glucocorticoid receptor responsive element MMTV and firefly luciferase reporter vector [luc2P/Hygro] were used as a reporter system (pGL4.36-MMTV/LUC). The cells were transfected with reporter vector MMTV/LUC.
stable transfection with reporter vector was performed on a 6-well plate (0.5x10^6 cells per well) in culture medium (EMEM, 10% FBS, NEAA, sodium […], L-glutamine). Briefly, according to the transfection procedure, cells were passaged, and they grew in a culture medium containing an appropriate concentration of the antibiotic (Hygromycin 150 µg/mL). Resistance to Hygromycin gene, which had been transfected together with the reporter vector to the cells, only allowed positively transfected cells to grow in this medium. Therefore, growing cell clones were selected for further steps as stable transfectants.
After 24h incubation of cells with the tested compounds, luciferase activity was measured using VICTOR™ X Multilabel Plate Reader -Perkin Elmer.

[5] = test system: Cyclin D1 promotor; assay: Activation of Cyclin D1 promotor; type: cell-based, human; conditions: Other signal cascades
[6] = test system: cycling guinea pigs; assay: Ovulation inhibition in cycling guinea pigs; type: in vivo, guinea pig; conditions: cycle days 10-17
Protocol: Test compounds were administered once daily from cycle days 10-17 by s. c. injection using 0.2 mL vehicle (benzyl-benzoate/castor oil, ratio 1 + 4 v/v). The time of autopsy (day 18) was 24-48h after the expected ovulation at the end of the treatment cycle. This design permits the study of the effects of the tested compounds on the expected ovulation. Fresh CL were evidence of a recent ovulation.

T1 sequence (P06401 whole entry): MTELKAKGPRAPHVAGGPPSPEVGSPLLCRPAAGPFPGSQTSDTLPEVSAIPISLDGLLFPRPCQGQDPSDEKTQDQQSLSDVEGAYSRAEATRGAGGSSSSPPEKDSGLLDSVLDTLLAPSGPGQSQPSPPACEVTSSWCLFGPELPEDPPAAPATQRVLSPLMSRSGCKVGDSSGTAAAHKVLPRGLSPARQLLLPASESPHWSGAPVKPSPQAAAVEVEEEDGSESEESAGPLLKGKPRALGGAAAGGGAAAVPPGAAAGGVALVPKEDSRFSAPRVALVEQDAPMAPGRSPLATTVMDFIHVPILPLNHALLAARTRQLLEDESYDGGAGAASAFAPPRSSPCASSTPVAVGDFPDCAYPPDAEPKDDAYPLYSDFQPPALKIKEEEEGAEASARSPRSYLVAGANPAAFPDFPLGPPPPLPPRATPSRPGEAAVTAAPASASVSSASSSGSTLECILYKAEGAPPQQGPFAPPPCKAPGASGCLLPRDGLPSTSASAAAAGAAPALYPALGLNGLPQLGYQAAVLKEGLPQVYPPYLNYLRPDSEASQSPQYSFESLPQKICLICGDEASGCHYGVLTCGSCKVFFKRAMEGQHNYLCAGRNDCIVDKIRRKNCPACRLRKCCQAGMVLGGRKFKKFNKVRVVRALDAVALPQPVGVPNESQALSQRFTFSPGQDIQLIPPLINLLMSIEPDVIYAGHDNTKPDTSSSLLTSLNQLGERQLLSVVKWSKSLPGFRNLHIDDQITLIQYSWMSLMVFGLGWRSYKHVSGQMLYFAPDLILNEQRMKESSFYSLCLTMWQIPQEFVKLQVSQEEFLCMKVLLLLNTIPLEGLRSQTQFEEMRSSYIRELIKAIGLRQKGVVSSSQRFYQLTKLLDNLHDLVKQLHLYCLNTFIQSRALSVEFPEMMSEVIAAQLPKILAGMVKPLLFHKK
T1 sequence (O75376 whole entry partner): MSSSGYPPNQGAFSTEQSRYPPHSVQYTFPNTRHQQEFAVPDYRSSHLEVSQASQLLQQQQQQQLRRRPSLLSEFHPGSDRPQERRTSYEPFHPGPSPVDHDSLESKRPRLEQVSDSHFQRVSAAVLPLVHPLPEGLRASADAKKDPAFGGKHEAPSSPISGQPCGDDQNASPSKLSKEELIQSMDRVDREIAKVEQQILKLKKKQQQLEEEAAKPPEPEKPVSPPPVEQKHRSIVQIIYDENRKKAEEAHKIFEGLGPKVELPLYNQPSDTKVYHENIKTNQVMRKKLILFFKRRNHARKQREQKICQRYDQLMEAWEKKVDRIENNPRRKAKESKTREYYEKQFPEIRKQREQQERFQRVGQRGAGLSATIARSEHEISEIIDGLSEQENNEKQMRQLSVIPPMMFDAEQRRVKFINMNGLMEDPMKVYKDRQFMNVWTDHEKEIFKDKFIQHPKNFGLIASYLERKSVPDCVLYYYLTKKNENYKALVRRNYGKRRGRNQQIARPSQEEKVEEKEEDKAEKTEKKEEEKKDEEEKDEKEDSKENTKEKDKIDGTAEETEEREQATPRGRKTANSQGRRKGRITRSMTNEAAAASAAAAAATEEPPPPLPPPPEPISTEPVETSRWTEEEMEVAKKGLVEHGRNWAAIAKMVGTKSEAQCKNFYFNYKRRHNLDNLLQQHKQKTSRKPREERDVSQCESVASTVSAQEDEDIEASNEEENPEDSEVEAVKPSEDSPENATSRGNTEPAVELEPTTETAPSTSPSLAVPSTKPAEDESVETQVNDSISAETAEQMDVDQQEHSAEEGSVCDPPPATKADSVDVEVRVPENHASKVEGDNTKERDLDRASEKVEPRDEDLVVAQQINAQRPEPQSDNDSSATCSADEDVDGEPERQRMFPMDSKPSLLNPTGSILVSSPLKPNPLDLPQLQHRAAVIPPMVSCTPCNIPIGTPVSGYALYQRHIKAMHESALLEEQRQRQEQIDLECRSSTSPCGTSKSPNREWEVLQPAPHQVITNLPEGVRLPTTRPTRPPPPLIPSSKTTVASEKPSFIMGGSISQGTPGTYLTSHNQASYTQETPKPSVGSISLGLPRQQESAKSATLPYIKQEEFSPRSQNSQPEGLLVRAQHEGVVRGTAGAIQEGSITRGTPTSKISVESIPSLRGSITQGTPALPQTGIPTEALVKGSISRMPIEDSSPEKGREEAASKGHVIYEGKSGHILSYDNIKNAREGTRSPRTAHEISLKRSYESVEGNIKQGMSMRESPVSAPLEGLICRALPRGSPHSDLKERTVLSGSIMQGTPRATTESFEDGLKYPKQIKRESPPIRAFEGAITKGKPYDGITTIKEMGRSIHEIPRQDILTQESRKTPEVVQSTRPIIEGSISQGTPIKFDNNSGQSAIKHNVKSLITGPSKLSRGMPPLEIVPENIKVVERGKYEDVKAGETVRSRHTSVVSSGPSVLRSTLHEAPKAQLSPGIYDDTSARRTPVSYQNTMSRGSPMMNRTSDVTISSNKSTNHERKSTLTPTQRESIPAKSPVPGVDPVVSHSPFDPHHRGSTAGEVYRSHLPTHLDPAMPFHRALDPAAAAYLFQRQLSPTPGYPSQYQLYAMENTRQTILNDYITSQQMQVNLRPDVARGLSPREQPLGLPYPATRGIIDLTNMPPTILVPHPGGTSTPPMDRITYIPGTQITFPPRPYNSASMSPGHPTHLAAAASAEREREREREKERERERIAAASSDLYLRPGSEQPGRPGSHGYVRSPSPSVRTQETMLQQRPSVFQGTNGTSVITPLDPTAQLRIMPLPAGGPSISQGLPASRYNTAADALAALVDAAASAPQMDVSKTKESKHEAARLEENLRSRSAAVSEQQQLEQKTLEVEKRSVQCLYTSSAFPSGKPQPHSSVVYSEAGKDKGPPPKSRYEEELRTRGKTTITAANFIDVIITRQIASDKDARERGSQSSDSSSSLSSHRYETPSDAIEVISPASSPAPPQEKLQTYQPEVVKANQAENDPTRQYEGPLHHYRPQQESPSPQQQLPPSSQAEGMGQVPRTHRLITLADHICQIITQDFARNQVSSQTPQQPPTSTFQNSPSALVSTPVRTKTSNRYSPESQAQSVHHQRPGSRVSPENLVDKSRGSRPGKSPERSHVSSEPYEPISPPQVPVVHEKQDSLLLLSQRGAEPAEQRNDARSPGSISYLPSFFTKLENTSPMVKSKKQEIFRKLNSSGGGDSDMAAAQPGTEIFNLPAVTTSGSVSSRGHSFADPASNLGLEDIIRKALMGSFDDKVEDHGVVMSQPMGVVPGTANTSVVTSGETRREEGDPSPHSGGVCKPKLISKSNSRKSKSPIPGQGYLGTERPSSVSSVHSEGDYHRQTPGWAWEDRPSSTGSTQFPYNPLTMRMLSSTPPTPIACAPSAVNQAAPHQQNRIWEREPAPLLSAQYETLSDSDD

Row | Molecule | Arrest in Go/G1 [2] | Score 2 for PR-agonistic activity [3] | Score 2 for PR-antagonistic activity [3] | Number of ovulations vs. number of inseminated females ([6]; 3.0 mg/animal/day s.c.) | Number of ovulations vs. number of inseminated females ([6]; 10.0 mg/animal/day s.c.) | further results
1 | COC[C@]1(OC)CC[C@H]2[C@@H]3CCC4=CC(=O)CCC4=C3[C@@H](c3ccc(/C=N/O)cc3)C[C@@]21C [Asoprisnil, reference compound] | ↑ | ~ 0.2 mg/animal/day s.c. | ~ 0.3 mg/animal/day s.c. | – | – | efficacy relative to Ulipristal acetate, NCoR interaction [1]: 56%; induction of PR interaction with NCoR [1]: limited ability to induce progesterone receptor interaction with NCoR; Quotient between antagonistic and agonistic action ([3]; McPhail score 2 doses): ~ 1.5; IC50 [4]: 1230 nM
2 | C[C@]12C[C@H](c3ccc(-n4ccnc4)cc3)C3=C4CCC(=O)C=C4CCC3C1CC[C@@]2(O)C(F)(F)C(F)(F)F (stereo partly shown) [EC317] | ↑ | – | – | 0/6 | 0/6 | Activation of Cyclin D1 promotor [5]: unclear*; Number of ovulations vs. number of inseminated females ([6]; 0.1 mg/animal/day s.c.): 2/3; Number of ovulations vs. number of inseminated females ([6]; 0.3 mg/animal/day s.c.): 3/3; Number of ovulations vs. number of inseminated females ([6]; 1.0 mg/animal/day s.c.): 0/3
3 | CC#C[C@]1(O)CC[C@H]2[C@@H]3CCC4=CC(=O)CCC4=C3[C@@H](c3ccc(N(C)C)cc3)C[C@@]21C [Mifepristone, reference compound] | ↑ | – | – | 2/5 | 0/3 | Number of ovulations vs. number of inseminated females ([6]; 1.0 mg/animal/day s.c.): 4/5
4 | CC(=O)[C@H]1CC[C@H]2[C@@H]3CCC4=CC(=O)CC[C@]4(C)[C@H]3CC[C@]12C [Progesterone] | – | ~ 0.1 mg/animal/day s.c. | n.a. “pure” agonist | – | – | –
5 | CCC(=O)[C@@]1(C)CC[C@H]2[C@@H]3CCC4=CC(=O)CCC4=C3CC[C@@]21C [Promegestone, reference compound] | ↓ | – | – | – | – | induction of PR interaction with NCoR [1]: does not induce NCoR interaction
6 | C[C@]12C[C@H](c3ccc(S(C)(=O)=O)cc3)C3=C4CCC(=O)C=C4CC[C@H]3[C@@H]1CC[C@@]2(O)C(F)(F)C(F)(F)F [Vilaprisan, reference compound] | – | n.a.;”pure” antagonist | < 0.3 mg/animal/day s.c. | 0/5 | 0/4 | IC50 [4]: 629 nM
7 | Telapristone acetate [CDB 4124 Telapristone acetate, reference compound] | – | – | – | – | 1/3 | –

From PMC10520499, “Next step in the development of mesoprogestins: the preclinical profile of EC313” (Frontiers in Endocrinology, 2023)
